Laboratory results from patent publication US20220047548A1, “SYNERGISTIC COMPOSITIONS COMPRISING (R)-2-(2-OXOPYRROLIDIN-1-YL)BUTANAMIDE AND (S)-2-(2-e OXOPYRROLEDIN-1-YL)BUTANAMEDE IN A NON-RACEMIC RATIO” (Metys Pharmaceuticals AG, priority 2018, published 2022).
Marks after values point to notes of the source that are not given here.

Columns and labels:
[1] = system: PTZ-induced kindling in mice; assay: PTZ-induced kindling test in mice (tonic and clonic convulsions kindled by once-daily pentylenetetrazole); type: in vivo, mice (adult male CD1); conditions: for antiepileptic effect in comparison experiment (in words): Tab. 2 comparison
Protocol: Adult male CD1 mice (Envigo, Italy 20-25 g weight at arrival), were used. The cages were brought into the experimental room the day before the experiment, for acclimatization purposes. Each treatment group consisted of 15 mice. Mice were fed a standard laboratory diet. Food and water were freely available. Room temperature and relative humidity were constantly kept at 22±2° C. and 55±15%, respectively, and a 12-hour light and 12-hour darkness cycles maintained.
Levetiracetam (batch P102-14050 supplied by Astatech), etiracetam (supplied by Shaanxi Swiden Biotech Co., Ltd. Catalog number E932970), or mixtures of 1 part levetiracetam and 1 part etiracetam (1-to-3 R-to-S-etiracetam), or of 1 part levetiracetam and 0.5 part etiracetam (1-to-5 R-to-S-etiracetam), were dissolved in 1% carboxymethylcellulose (CMC) solution at a formulation strength of 55 mg/mL and orally administered once per day. Compounds were administered every day, from day 1 to day 11, 60 min before PTZ (55 mg/kg i.p.). PTZ was dissolved in saline; following i.p. injection, seizures developed in vehicle-treated mice within about 20 minutes.
The test was performed according to Gower et al. (Eur. J. Pharmacol. 222, 1992, 193-203). Separate groups of male mice were administered orally once daily for 11 consecutive days with levetiracetam (10, 30, or 60 mg/kg p.o.); etiracetam (30 mg/kg p.o.); or 1-to-3 R-to-S-etiracetam (30 mg/kg p.o.); or 1-to-5 R-to-S-etiracetam, (30 mg/kg p.o.); or oral vehicle, 60 min prior to administration of PTZ (pentylenetetrazole, 55.0 mg/kg i.p.). Immediately after the PTZ injection, the mice were placed in individual cages and observed for tonic and clonic seizures.
A chi-square test was used to verify significance between two means of behavioral results. Data were analyzed by the Social Science Statistics Program. P values ≤0.05 were considered significant (link https://www.socscistatistics.com/tests/chisquare/default2.aspx).

[2] = system: electroshock-induced amnesia; conditions: sub-cutaneous injection; rat; cited from earlier work
[3] = Table 2 comparison, 30 mg/kg p.o. once daily 60 min before PTZ 55 mg/kg i.p., Day 1
[4] = Table 2 comparison, 30 mg/kg p.o. once daily 60 min before PTZ 55 mg/kg i.p., Day 2
[5] = Table 2 comparison, 30 mg/kg p.o. once daily 60 min before PTZ 55 mg/kg i.p., Day 3
[6] = Table 2 comparison, 30 mg/kg p.o. once daily 60 min before PTZ 55 mg/kg i.p., Day 4
[7] = Table 2 comparison, 30 mg/kg p.o. once daily 60 min before PTZ 55 mg/kg i.p., Day 5
[8] = Table 2 comparison, 30 mg/kg p.o. once daily 60 min before PTZ 55 mg/kg i.p., Day 6
[9] = Table 2 comparison, 30 mg/kg p.o. once daily 60 min before PTZ 55 mg/kg i.p., Day 7
[10] = Table 2 comparison, 30 mg/kg p.o. once daily 60 min before PTZ 55 mg/kg i.p., Day 8
[11] = Table 2 comparison, 30 mg/kg p.o. once daily 60 min before PTZ 55 mg/kg i.p., Day 9
[12] = Table 2 comparison, 30 mg/kg p.o. once daily 60 min before PTZ 55 mg/kg i.p., Day 10
[13] = Table 2 comparison, 30 mg/kg p.o. once daily 60 min before PTZ 55 mg/kg i.p., Day 11

## CCC(C(N)=O)N1CCCC1=O (racemic) [etiracetam, 2-(2-oxopyrrolidin-1-yl)butanamide]
[1]; 30 mg/kg p.o.
  antiepileptic effect in comparison experiment (in words): ineffective
[1]; [3]
  percentage of mice per group with clonic convulsions: 0%
[1]; [4]
  percentage of mice per group with clonic convulsions: 6.6%
[1]; [5]
  percentage of mice per group with clonic convulsions: 13.3%
[1]; [6]
  percentage of mice per group with clonic convulsions: 26.6%
[1]; [7]
  percentage of mice per group with clonic convulsions: 26.6%
[1]; [8]
  percentage of mice per group with clonic convulsions: 46.6%
[1]; [9]
  percentage of mice per group with clonic convulsions: 53.3%
[1]; [10]
  percentage of mice per group with clonic convulsions: 66.6%
[1]; [11]
  percentage of mice per group with clonic convulsions: 86.6%
[1]; [12]
  percentage of mice per group with clonic convulsions: 93.3%
[1]; [13]
  percentage of mice per group with clonic convulsions: 100%

## CC[C@H](C(N)=O)N1CCCC1=O [R-etiracetam, (R)-2-(2-oxopyrrolidin-1-yl)butanamide]
[2]
  potency relative to racemic etiracetam: 10 fold

## CC[C@@H](C(N)=O)N1CCCC1=O [levetiracetam, (S)-2-(2-oxopyrrolidin-1-yl)butanamide]
[1]; 10 mg/kg p.o., at the end of the treatment (day 11)
  effect on PTZ-induced kindling (in words): all mice showed tonic or clonic convulsions
[1]; 30 mg/kg p.o.
  antiepileptic effect in comparison experiment (in words): moderately effective
[1]; 30 mg/kg p.o., dose-response experiment (Tab. 1)
  effect on PTZ-induced kindling (in words): intermediate reduction of the effect
[1]; 60 mg/kg p.o. once daily, days 1-6
  incidence of clonic convulsion in the first 6 days: ≤ 20%
[1]; 60 mg/kg p.o., eighth to eleventh day of treatment
  effect on PTZ-induced kindling vs vehicle treatment group (in words): statistically significant difference in the proportion of mice exhibiting seizures
[1]; Table 1, 10 mg/kg p.o. once daily 60 min before PTZ 55 mg/kg i.p., Day 1
  percentage of mice per group with clonic convulsions: 6.6%
[1]; Table 1, 10 mg/kg p.o. once daily 60 min before PTZ 55 mg/kg i.p., Day 2
  percentage of mice per group with clonic convulsions: 6.6%
[1]; Table 1, 10 mg/kg p.o. once daily 60 min before PTZ 55 mg/kg i.p., Day 3
  percentage of mice per group with clonic convulsions: 20.0%
[1]; Table 1, 10 mg/kg p.o. once daily 60 min before PTZ 55 mg/kg i.p., Day 4
  percentage of mice per group with clonic convulsions: 26.6%
[1]; Table 1, 10 mg/kg p.o. once daily 60 min before PTZ 55 mg/kg i.p., Day 5
  percentage of mice per group with clonic convulsions: 26.6%
[1]; Table 1, 10 mg/kg p.o. once daily 60 min before PTZ 55 mg/kg i.p., Day 6
  percentage of mice per group with clonic convulsions: 53.0%
[1]; Table 1, 10 mg/kg p.o. once daily 60 min before PTZ 55 mg/kg i.p., Day 7
  percentage of mice per group with clonic convulsions: 53.3%
[1]; Table 1, 10 mg/kg p.o. once daily 60 min before PTZ 55 mg/kg i.p., Day 8
  percentage of mice per group with clonic convulsions: 73.3%
[1]; Table 1, 10 mg/kg p.o. once daily 60 min before PTZ 55 mg/kg i.p., Day 9
  percentage of mice per group with clonic convulsions: 86.6%
[1]; Table 1, 10 mg/kg p.o. once daily 60 min before PTZ 55 mg/kg i.p., Day 10
  percentage of mice per group with clonic convulsions: 86.6%
[1]; Table 1, 10 mg/kg p.o. once daily 60 min before PTZ 55 mg/kg i.p., Day 11
  percentage of mice per group with clonic convulsions: 100%
[1]; Table 1, 30 mg/kg p.o. once daily 60 min before PTZ 55 mg/kg i.p., Day 1
  percentage of mice per group with clonic convulsions: 0%
[1]; Table 1, 30 mg/kg p.o. once daily 60 min before PTZ 55 mg/kg i.p., Day 2
  percentage of mice per group with clonic convulsions: 6.6%
[1]; Table 1, 30 mg/kg p.o. once daily 60 min before PTZ 55 mg/kg i.p., Day 3
  percentage of mice per group with clonic convulsions: 13.3%
[1]; Table 1, 30 mg/kg p.o. once daily 60 min before PTZ 55 mg/kg i.p., Day 4
  percentage of mice per group with clonic convulsions: 20.0%
[1]; Table 1, 30 mg/kg p.o. once daily 60 min before PTZ 55 mg/kg i.p., Day 5
  percentage of mice per group with clonic convulsions: 20.0%
[1]; Table 1, 30 mg/kg p.o. once daily 60 min before PTZ 55 mg/kg i.p., Day 6
  percentage of mice per group with clonic convulsions: 26.6%
[1]; Table 1, 30 mg/kg p.o. once daily 60 min before PTZ 55 mg/kg i.p., Day 7
  percentage of mice per group with clonic convulsions: 33.3%
[1]; Table 1, 30 mg/kg p.o. once daily 60 min before PTZ 55 mg/kg i.p., Day 8
  percentage of mice per group with clonic convulsions: 46.6%
[1]; Table 1, 30 mg/kg p.o. once daily 60 min before PTZ 55 mg/kg i.p., Day 9
  percentage of mice per group with clonic convulsions: 66.6%
[1]; Table 1, 30 mg/kg p.o. once daily 60 min before PTZ 55 mg/kg i.p., Day 10
  percentage of mice per group with clonic convulsions: 66.6%
[1]; Table 1, 30 mg/kg p.o. once daily 60 min before PTZ 55 mg/kg i.p., Day 11
  percentage of mice per group with clonic convulsions: 73.3%
[1]; Table 1, 60 mg/kg p.o. once daily 60 min before PTZ 55 mg/kg i.p., Day 1
  percentage of mice per group with clonic convulsions: 0%
[1]; Table 1, 60 mg/kg p.o. once daily 60 min before PTZ 55 mg/kg i.p., Day 2
  percentage of mice per group with clonic convulsions: 0%
[1]; Table 1, 60 mg/kg p.o. once daily 60 min before PTZ 55 mg/kg i.p., Day 3
  percentage of mice per group with clonic convulsions: 6.6%
[1]; Table 1, 60 mg/kg p.o. once daily 60 min before PTZ 55 mg/kg i.p., Day 4
  percentage of mice per group with clonic convulsions: 20.0%
[1]; Table 1, 60 mg/kg p.o. once daily 60 min before PTZ 55 mg/kg i.p., Day 5
  percentage of mice per group with clonic convulsions: 20.0%
[1]; Table 1, 60 mg/kg p.o. once daily 60 min before PTZ 55 mg/kg i.p., Day 6
  percentage of mice per group with clonic convulsions: 20.0%
[1]; Table 1, 60 mg/kg p.o. once daily 60 min before PTZ 55 mg/kg i.p., Day 7
  percentage of mice per group with clonic convulsions: 26.6%
[1]; Table 1, 60 mg/kg p.o. once daily 60 min before PTZ 55 mg/kg i.p., Day 8
  percentage of mice per group with clonic convulsions: 26.6^# %
[1]; Table 1, 60 mg/kg p.o. once daily 60 min before PTZ 55 mg/kg i.p., Day 9
  percentage of mice per group with clonic convulsions: 33.3^# %
[1]; Table 1, 60 mg/kg p.o. once daily 60 min before PTZ 55 mg/kg i.p., Day 10
  percentage of mice per group with clonic convulsions: 33.3^# %
[1]; Table 1, 60 mg/kg p.o. once daily 60 min before PTZ 55 mg/kg i.p., Day 11
  percentage of mice per group with clonic convulsions: 40%
[1]; [3]
  percentage of mice per group with clonic convulsions: 0%
[1]; [4]
  percentage of mice per group with clonic convulsions: 0%
[1]; [5]
  percentage of mice per group with clonic convulsions: 6.6%
[1]; [6]
  percentage of mice per group with clonic convulsions: 13.3%
[1]; [7]
  percentage of mice per group with clonic convulsions: 20.0%
[1]; [8]
  percentage of mice per group with clonic convulsions: 26.6%
[1]; [9]
  percentage of mice per group with clonic convulsions: 33.3%
[1]; [10]
  percentage of mice per group with clonic convulsions: 46.6%
[1]; [11]
  percentage of mice per group with clonic convulsions: 66.6%
[1]; [12]
  percentage of mice per group with clonic convulsions: 73.3%
[1]; [13]
  percentage of mice per group with clonic convulsions: 73.3%
